In patent US7012060B1, “TNF receptor and steroid hormone in a combined therapy” (priority 1995, dated 2006):
Marks after values point to notes of the source that are not given here.

System: septic shock induced by LPS + D-Galactosamine, in mice
Test: LPS+D-Galactosamine-induced septic shock model
Type: in vivo, SPF female BALB/c inbred mice
Procedure: The experiments were carried out in vivo on mice. The septic shock was induced by an i.p. administration of a mixture of LPS (0.1 μg/mouse) and D-Galactosamine (18 mg/mouse).
The treatment schedule for r-hTBP-1 based on repeated administrations (the total dose was divided into 4 administrations given at time 0 and […] and 24 hours after), was adopted. CHO r-hTBP-1 was tested, alone or in combination with DHEA, at dose levels of 62.5 and 125 μg/mouse (total dose).
DHEA was tested both in a single administration injected i.p. one hour before and contemporaneously to the septic shock-inducing agent at doses encompassed between 100 and 2.000 μg/mouse and in repeated treatment with the total dose (250 μg/mouse) divided into 4 injections given within 24 hours.
The above treatment schedules of DHEA (doses from 250 to 1,500 μl g/mouse) were followed also in combination with r-hTBP-1 which was tested at the total dose varying from 62.5 to 125 μg/mouse (divided into 4 administrations).
SPF female BALB/c inbred mice, 6–8 weeks (about 18–20 g b.w.), from Charles River were used throughout the whole study after an acclimatisation period of at least 7 days.
Unless otherwise specified, in all the experiments the mice were randomly divided into groups of 10 animals each.
Both substances were dissolved in saline. The mixture of LPS (0.1 μg/mouse) and D-Galactosamine (18 mg/mouse) was prepared by mixing equal volumes of these substances. The mixture was subsequently injected to animals by the i.p. route. This dose was selected under precious experiments as that inducing around 80% mortality calculated as the number of dead vs. total number of mice for each croup. The lethality was monitored after 24, 48, 72 and 96 hours and at day 7 post-treatment.
The drug was diluted in saline and injected by repeated administrations, i.e. i.v. immediately before the inoculum of LPS plus D-Galactosamine and s.c. 3, 6 and 24 hours later.
The effects of DHEA, alone or in combination with r-hTBP-1, were assayed after single i.p. administrations at different times in respect to LPS+D-Galactosamine injection; in particular, it was administered 1 hour before and contemporaneously to the septic shock-inducing agent.
A repeated treatment schedule was also investigated in which DHEA was administered at time 0 (septic shock induction) and 3, 6 and 24 hours later. DHEA was initially vehicled in a mixture of 2.5% alcohol and 10% rabbit serum in saline. To improve the solubility and standardise the preparation, the steroid was successively dispersed in a mixture of 2.5% alcohol and 10% phospholipid emulsion in saline.
The primary end point was the survival rate at 48 hours after induction of septic shock. The comparison of the effects of each treatment group vs. controls and among treatment groups was effected by Fisher's exact test, one-tailed. The same comparison was also performed at the other time points. The results in each treatment group were expressed as percent survival.
In all the experiments, percent survival values were calculated using the survival Tables for the follow up studies (Armitage P. Cap. XIV. Tavole di sopravvivenza in Statistica Medica, Feltrinelli, Milano). The χ^2-test was applied to each observation time by comparing the DHEA+r-hTBP-1 groups to the other groups.

C[C@]12CC[C@H](O)CC1=CC[C@@H]1[C@@H]2CC[C@]2(C)C(=O)CC[C@@H]12 [DHEA, Dehydroepiandrosterone]
protection (DHEA 1.000 μg contemporaneously with LPS+D-Gal vs same dose 1 hour before): higher protection | survival rate (DHEA 1.500 μg/mouse alone, 1 hour before): 40% | protective effects (DHEA 2.000 μg/mouse, 1 hour before LPS+D-Galactosamine, all time points): complete protection | % cumulative survival (DHEA 100 μg/mouse i.p. 1 hour before LPS + D-Gal, saline 10% rabbit serum, 24 hrs, 1st exp): 20% | % cumulative survival (DHEA 100 μg/mouse i.p. 1 hour before LPS + D-Gal, saline 10% rabbit serum, 48 hrs, 1st exp): 20% | % cumulative survival (DHEA 100 μg/mouse i.p. 1 hour before LPS + D-Gal, saline 10% rabbit serum, 72 hrs, 1st exp): 20% | % cumulative survival (DHEA 100 μg/mouse i.p. 1 hour before LPS + D-Gal, saline 10% rabbit serum, 96 hrs, 1st exp): 20% | protection (survival) (DHEA 250 μg/mouse alone at time 0, rabbit serum vehicle): 30% | survival rate (DHEA 250 μg/mouse divided into 4 inocula at 0, 3, 6 and 24 hours (group E), 48 hours): 40% | % cumulative survival (DHEA 250 μg/mouse i.p. at time 0, saline 10% rabbit serum, 24 hrs, 2nd exp.): 20% | % cumulative survival (DHEA 250 μg/mouse i.p. at time 0, saline 10% rabbit serum, 48 hrs, 2nd exp.): 20% | % cumulative survival (DHEA 250 μg/mouse i.p. at time 0, saline 10% rabbit serum, 72 hrs, 2nd exp.): 20% | % cumulative survival (DHEA 250 μg/mouse i.p. at time 0, saline 10% rabbit serum, 96 hrs, 2nd exp.): 20% | survival rate (DHEA 250 μg/mouse single injection (group D), 48 hours): 30% | % cumulative survival (DHEA 500 μg/mouse i.p. 1 hour before LPS + D-Gal, saline 10% rabbit serum, 24 hrs, 1st exp): 10% | % cumulative survival (DHEA 500 μg/mouse i.p. 1 hour before LPS + D-Gal, saline 10% rabbit serum, 48 hrs, 1st exp): 10% | % cumulative survival (DHEA 500 μg/mouse i.p. 1 hour before LPS + D-Gal, saline 10% rabbit serum, 72 hrs, 1st exp): 10% | % cumulative survival (DHEA 500 μg/mouse i.p. 1 hour before LPS + D-Gal, saline 10% rabbit serum, 96 hrs, 1st exp): 10% | % cumulative survival (DHEA 500 μg/mouse i.p. at time 0, saline 10% rabbit serum, 24 hrs, 1st exp.): 50% | % cumulative survival (DHEA 500 μg/mouse i.p. at time 0, saline 10% rabbit serum, 24 hrs, 2nd exp.): 30% | % cumulative survival (DHEA 500 μg/mouse i.p. at time 0, saline 10% rabbit serum, 48 hrs, 1st exp.): 40% | % cumulative survival (DHEA 500 μg/mouse i.p. at time 0, saline 10% rabbit serum, 48 hrs, 2nd exp.): 30% | % cumulative survival (DHEA 500 μg/mouse i.p. at time 0, saline 10% rabbit serum, 72 hrs, 1st exp.): 30% | % cumulative survival (DHEA 500 μg/mouse i.p. at time 0, saline 10% rabbit serum, 72 hrs, 2nd exp.): 30% | % cumulative survival (DHEA 500 μg/mouse i.p. at time 0, saline 10% rabbit serum, 96 hrs, 1st exp.): 30% | % cumulative survival (DHEA 500 μg/mouse i.p. at time 0, saline 10% rabbit serum, 96 hrs, 2nd exp.): 30% | % cumulative survival (DHEA 750 μg/mouse i.p. at time 0, saline 10% rabbit serum, 24 hrs, 1st exp.): 40% | % cumulative survival (DHEA 750 μg/mouse i.p. at time 0, saline 10% rabbit serum, 24 hrs, 2nd exp.): 50% | % cumulative survival (DHEA 750 μg/mouse i.p. at time 0, saline 10% rabbit serum, 48 hrs, 1st exp.): 40% | % cumulative survival (DHEA 750 μg/mouse i.p. at time 0, saline 10% rabbit serum, 48 hrs, 2nd exp.): 50% | % cumulative survival (DHEA 750 μg/mouse i.p. at time 0, saline 10% rabbit serum, 72 hrs, 1st exp.): 40% | % cumulative survival (DHEA 750 μg/mouse i.p. at time 0, saline 10% rabbit serum, 72 hrs, 2nd exp.): 50% | % cumulative survival (DHEA 750 μg/mouse i.p. at time 0, saline 10% rabbit serum, 96 hrs, 1st exp.): 40% | % cumulative survival (DHEA 750 μg/mouse i.p. at time 0, saline 10% rabbit serum, 96 hrs, 2nd exp.): 50% | % cumulative survival (DHEA 1000 μg/mouse i.p. 1 hour before LPS + D-Gal, saline 10% rabbit serum, 24 hrs, 2nd exp): 20% | % cumulative survival (DHEA 1000 μg/mouse i.p. 1 hour before LPS + D-Gal, saline 10% rabbit serum, 48 hrs, 2nd exp): 20% | % cumulative survival (DHEA 1000 μg/mouse i.p. 1 hour before LPS + D-Gal, saline 10% rabbit serum, 72 hrs, 2nd exp): 10% | % cumulative survival (DHEA 1000 μg/mouse i.p. 1 hour before LPS + D-Gal, saline 10% rabbit serum, 96 hrs, 2nd exp): 0% | % cumulative survival (DHEA 1000 μg/mouse i.p. at time 0, saline 10% rabbit serum, 24 hrs, 1st exp.): 80^a % | % cumulative survival (DHEA 1000 μg/mouse i.p. at time 0, saline 10% rabbit serum, 48 hrs, 1st exp.): 60% | % cumulative survival (DHEA 1000 μg/mouse i.p. at time 0, saline 10% rabbit serum, 72 hrs, 1st exp.): 60% | % cumulative survival (DHEA 1000 μg/mouse i.p. at time 0, saline 10% rabbit serum, 96 hrs, 1st exp.): 60% | % cumulative survival (DHEA 1500 μg/mouse i.p. 1 hour before LPS + D-Gal, saline 10% rabbit serum, 24 hrs, 2nd exp): 70^a % | % cumulative survival (DHEA 1500 μg/mouse i.p. 1 hour before LPS + D-Gal, saline 10% rabbit serum, 48 hrs, 2nd exp): 70^a % | % cumulative survival (DHEA 1500 μg/mouse i.p. 1 hour before LPS + D-Gal, saline 10% rabbit serum, 72 hrs, 2nd exp): 50%
